Columns and labels:
[1] = test system: outer hair cells (OHCs) of p3 murine organ of Corti explants; experiment: Toxicity of HDAC inhibitors in murine cochlear explants (OHC loss by hair cell counts); format: cell-based, CBA/J mice; conditions: for loss of OHCs: 72 h; for concentration at which changes in orientation of stereociliary bundles of basal-turn OHCs begin / TD50 (median toxic dose, concentration leading to 50% OHC loss): 72 h incubation; for TD50 (median toxic dose, concentration leading to 50% OHC loss): p3 murine explants
Text: (§1) The culture procedures have been described in detail (Chen et al., [2009]). In brief, postnatal day 3 (p3) CBA/J pups were euthanized after antisepsis using 70% ethanol. Inner ears were extracted from surrounding tissue and immersed in cold Hank’s balanced salt solution. The lateral wall tissues (stria vascularis and spiral ligament) and the auditory nerve bundle were micro-dissected from the organ of Corti. The explants were placed onto a prepared culture dish containing a 15-μL polymerized drop of rat tail collagen in 1 mL of culture medium consisting of Basal Medium Eagle, 1% serum-free supplement (Invitrogen, Carlsbad, CA, USA), 1% bovine serum albumin, 5 mg/mL glucose, and 10 U/mL penicillin G. After 4 h of incubation (37°C, 5% CO2), an additional 1 mL of medium was added to submerge the explants.
(§2) The medium was then exchanged for new medium containing a final concentration of 4.5 μM GM with or without various concentrations of the HDAC inhibitors and incubated for 72 h. The stock solutions with 95 mM of SAHA/vorinostat (Cayman Chemical, Ann Arbor, MI, USA), 100 mM of belinostat (Selleckchem, Houson, TX, USA), and 100 mM of panobinostat (Cayman Chemical), were dissolved in 100% dimethyl sulfoxide (DMSO) and stored at −20°C. GM solution was made fresh from powder in culture medium at 0.2 mM and then diluted to the final concentration for each experiment.
(§3) Explants were fixed with 4% paraformaldehyde overnight at 4°C and permeabilized for 30 min with 3% Triton X-100 in phosphate-buffered saline (PBS) at room temperature (22–24°C). The specimens were then washed three times with PBS and incubated with rhodamine-phalloidin (Invitrogen) at a 1:100 dilution for 60 min at room temperature (22–24°C). After rinsing in PBS, the specimens were mounted on a slide with Gel-Mount™ (BioMeda Corp., Foster City, CA, USA). The phalloidin-stained stereociliary bundles and circumferential F-actin rings on the cuticular plate of OHCs allowed the determination of cells that were present or missing. A clear “V” shape of stereocilia indicates the presence of OHCs. If the “V” shape is not visualized, we accept this as a damaged hair cells. Cell populations were assessed on a Leitz Orthoplan upright microscope equipped for epifluorescence, using a 50× oil-immersion objective. […] Each successive 0.19-mm field was evaluated for the absence of OHCs beginning from the apex and moving down the organ of Corti to the base. The percentage of OHC loss was calculated.
In order to evaluate the protective potential of the three HDAC inhibitors on aminoglycoside-induced ototoxicity, we first determined their safety on auditory sensory hair cells using p3 murine organ of Corti explants. Explants were incubated for 2 days for recovery from the stress of dissection, followed by 72 h of incubation with or without inhibitors. Toxic effects were assessed by OHC loss. […] OHCs in the basal turn show changes in the orientation of the stereociliary bundles beginning with concentrations of 4 μM for SAHA, 3 μM for belinostat, and 20 nM for panobinostat.

[2] = test system: outer hair cells (OHCs) of p3 murine organ of Corti explants; experiment: Protection against gentamicin-induced OHC loss in murine organ of Corti explants; format: cell-based, CBA/J mice; conditions: for concentration at which protection from GM-induced OHC loss begins / concentration that completely prevents GM-induced OHC loss / ED50 (median effective protective dose): 4.5 μM GM; for ED50 (median effective protective dose): 72 h co-incubation, p3 murine explants
Text: as §1, §2, §3
After having established the safe concentration range for the HDAC inhibitors, we explored their efficacy as protective agents against GM-induced OHC loss. […] From the assessment of safe doses and the median effective (protective) doses (ED50) of the three HDAC inhibitors, we calculated the therapeutic index (TI = TD50/ED50) to be highest (safest) for belinostat and lowest for panobinostat (for detailed values see Table 2).

CBA/J mice = experiment: Kanamycin-induced hearing loss in CBA/J mice in vivo (ABR threshold shifts), chronic model; conditions: for auditory threshold shift (ABR), average: KM 700 mg base/kg SQ twice daily for 15 days
Experimental: Male CBA/J mice at the age of 5 weeks received subcutaneous (SQ) injections of KM at 700 mg base/kg (dissolved in saline) twice per day (AM and PM). SAHA for administration was dissolved in 100% DMSO for stock solutions of 50 mg/mL and diluted with saline immediately before intraperitoneal (IP) injection, for a final dose of 50 mg/kg, given twice per day for 15 days. The concentration of DMSO vehicle control was 1 mL/kg body weight. All solutions were filtered with a syringe filter before injection. Body weight was measured before each injection.
ABRs were measured 3 days before and 3 weeks after drug treatments. Animals were anesthetized with IP injections of ketamine (100 mg/kg) and xylazine (10 mg/kg) for mice or ketamine (58.8 mg/kg), xylazine (2.4 mg/kg), and acepromazine (1.2 mg/kg) for guinea pigs. Body temperature was maintained near 37°C with a heating pad. ABRs were measured at 12 and 32 kHz for guinea pigs or 8, 16, and 32 kHz for mice in a sound-isolated and electrically shielded booth (Acoustic Systems, Austin, TX, USA). Sub-dermal electrodes were inserted at the vertex of the skull, under the left ear and under the right ear (ground). Tucker Davis Technology System III hardware and SigGen/Biosig software were used to present the stimuli monaurally (15 ms duration tone bursts with 1 ms rise-fall time) through a Beyer earphone attached to a customized plastic speculum inserted into the ear canal. Up to 1024 responses were averaged for each stimulus level. Thresholds (the lowest stimulus level with a reproducible response) were determined by reducing the intensity in 10-dB steps and then in 5-dB steps approaching the threshold until no organized response was detected. Thresholds were evaluated based on ABR wave I. Scores were given by an expert blinded to experimental conditions between the highest stimulus level without a response and the lowest stimulus level where an organized response was observed. All ABR measurements were conducted by the same experimenter. […]

[3] = Guinea pig tolerability, serum platelet, BUN and creatinine levels; format: in vivo, guinea pigs; conditions: for BUN / Cr: in mg/dL (unit assumed)
Experimental: Pigmented male guinea pigs initially weighing 200–250 g from Charles River were used in the in-vivo study. Experiments were begun 1 week after the guinea pigs arrived. To select safe doses of SAHA for protective studies, we conducted two separate sets of experiments to assess serum platelet concentrations. In the first set, pigmented guinea pigs received daily IP injections of SAHA at lower doses (LD; 2 mg/kg and 5 mg/kg) concurrent with SQ injections of 120 mg GM base/kg body weight daily for 2 weeks. In the second study, the higher doses (HD) of SAHA (15 mg/kg and 25 mg/kg) were used. The DMSO concentration was 1.1 g/kg, equal to the DMSO concentration used for the 25 mg/kg concentration of SAHA. […] We then tested the protective ability of SAHA at LD (2 mg/kg and 5 mg/kg) and at HD of SAHA (15 mg/kg and 25 mg/kg) against GM-induced hearing loss concurrent with daily SQ injections of GM (dissolved in saline) at 120 mg base/kg for 14 days. SAHA was dissolved in 100% DMSO for stock solutions of 25 mg/mL and diluted with saline immediately before IP injections. All compound solutions were filtered with syringe filters before injection. Body weights were measured before each injection. If a guinea pig lost ~5% of its body weight, an additional 3–4 mL of saline was administrated subcutaneously.
Blood was obtained by nail clipping after light anesthesia of the guinea pigs by metofane inhalation after the last drug injections. Blood cells were separated by centrifugation at 1000× g for 15 min, and sera were stored at −20°C. Blood urea nitrogen (BUN), creatinine and platelet concentrations were determined using a Kodak Ektachem700XR Clinical Chemistry Analyzer (Clinical Products Division, Eastman Kodak, Rochester, NY, USA) and analyzed by Dr. Donald Giacherio, Chemical Pathology Laboratory, University of Michigan.
While the CBA/J mouse is a well-established model for chronic KM-induced ototoxicity, we wished to ascertain whether the lack of protection by SAHA might be species-dependent. We therefore tested if SAHA treatment had protective effects against GM-induced hearing loss in guinea pigs. To find safe doses to be used in guinea pigs in vivo, we first assessed serum platelet concentrations. Guinea pigs tolerated injections of SAHA at all concentrations of 5–25 mg/kg body weight concurrent with SQ injections of 120 mg GM base/kg body weight daily for 2 weeks with normal appearing fur and steadily increasing body weight. Blood samples were collected after the last injection.

pigmented guinea pigs = experiment: Gentamicin-induced ototoxicity in guinea pigs in vivo (ABR threshold shifts, OHC counts), chronic model; conditions: for effect on GM-induced auditory threshold shifts: SAHA IP LD 2–5 mg/kg or HD 15–25 mg/kg with GM 120 mg base/kg daily for 2 weeks
Experimental: Pigmented male guinea pigs initially weighing 200–250 g from Charles River were used in the in-vivo study. Experiments were begun 1 week after the guinea pigs arrived. To select safe doses of SAHA for protective studies, we conducted two separate sets of experiments to assess serum platelet concentrations. […] In the second study, the higher doses (HD) of SAHA (15 mg/kg and 25 mg/kg) were used. The DMSO concentration was 1.1 g/kg, equal to the DMSO concentration used for the 25 mg/kg concentration of SAHA. […] SAHA was dissolved in 100% DMSO for stock solutions of 25 mg/mL and diluted with saline immediately before IP injections. All compound solutions were filtered with syringe filters before injection. Body weights were measured before each injection. If a guinea pig lost ~5% of its body weight, an additional 3–4 mL of saline was administrated subcutaneously.
The procedures for surface preparations of guinea pig cochlear epithelia were followed as previously described (Sha and Schacht, [1999b]). After the last auditory brain stem response (ABR) measurement, guinea pigs from the second group of experiments were deeply anesthetized in a CO2 chamber and decapitated. Cochleae were immediately removed and perfused with 4% paraformaldehyde in PBS at pH 7.4 and fixed overnight at 4°C. Micro-dissected surface preparations of the organ of Corti were permeabilized for 30 min with 0.5% Triton X-100 in PBS at room temperature (22–24°C) and stained with rhodamine phalloidin (Invitrogen) at a 1:100 dilution for 60 min at room temperature (22–24°C). After rinsing in PBS, the specimens were mounted on a slide with Gel-Mount™ (BioMeda Corp.). OHC counts were conducted with microscopy as described above for mice.
ABRs were measured 3 days before and 3 weeks after drug treatments. Animals were anesthetized with IP injections of ketamine (100 mg/kg) and xylazine (10 mg/kg) for mice or ketamine (58.8 mg/kg), xylazine (2.4 mg/kg), and acepromazine (1.2 mg/kg) for guinea pigs. Body temperature was maintained near 37°C with a heating pad. ABRs were measured at 12 and 32 kHz for guinea pigs or 8, 16, and 32 kHz for mice in a sound-isolated and electrically shielded booth (Acoustic Systems, Austin, TX, USA). Sub-dermal electrodes were inserted at the vertex of the skull, under the left ear and under the right ear (ground). […] Thresholds (the lowest stimulus level with a reproducible response) were determined by reducing the intensity in 10-dB steps and then in 5-dB steps approaching the threshold until no organized response was detected. Thresholds were evaluated based on ABR wave I. Scores were given by an expert blinded to experimental conditions between the highest stimulus level without a response and the lowest stimulus level where an organized response was observed. […]

mice [4] = conditions: systemic SAHA, cited from earlier work
mice [5] = test system: mice; design: method as in Layman et al., 2015; conditions: 100 mg/kg/day for 2 weeks, ref Layman et al., 2015; cited from earlier work
[6] = cited from earlier work
[7] = test system: hair cells in organotypic cultures of the cochlea; design: method as in Chen et al., 2009; conditions: ref Chen et al., 2009; cited from earlier work
guinea pigs = test system: guinea pigs; design: method as in Wang et al., 2015; conditions: locally applied to the middle ear; ref Wang et al., 2015; cited from earlier work
[8] = GM + SAHA (HD: 15–25 mg/kg), n=5
[9] = SAHA alone (LD + HD; LD 2–5 mg/kg, HD 15–25 mg/kg), n=2

Structure (SMILES): Cc1[nH]c2ccccc2c1CCNCc1ccc(/C=C/C(=O)NO)cc1 [panobinostat]
- loss of OHCs ([1]; 50 nM): 100%
- concentration at which changes in orientation of stereociliary bundles of basal-turn OHCs begin [1]: 20 nM
- TD50 (median toxic dose, concentration leading to 50% OHC loss) [1]: 0.035 µM
- concentration at which protection from GM-induced OHC loss begins ([2]; 72 h): 0.005 µM
- concentration that completely prevents GM-induced OHC loss ([2]; 72 h): 0.015 µM
- ED50 (median effective protective dose) [2]: 9 nM

Structure (SMILES): O=C(CCCCCCC(=O)Nc1ccccc1)NO [SAHA, vorinostat]
- loss of OHCs ([1]; 8 μM): 100%
- concentration at which changes in orientation of stereociliary bundles of basal-turn OHCs begin [1]: 4000 nM
- TD50 (median toxic dose, concentration leading to 50% OHC loss) [1]: 5.5 µM
- concentration at which protection from GM-induced OHC loss begins ([2]; 72 h): 0.5 µM
- concentration that completely prevents GM-induced OHC loss ([2]; 72 h): 2 µM
- ED50 (median effective protective dose) [2]: 600 nM
- effect on KM-induced auditory threshold shifts (CBA/J mice; SAHA 50 mg/kg IP twice daily for 15 days with KM 700 mg base/kg twice daily): did not attenuate
- BUN [3, 8]: 17 ± 3.2
- Cr [3, 8]: 0.4 ± 0.08
- BUN ([3]; GM + SAHA (LD: 2–5 mg/kg), n=6): 17 ± 1.7
- Cr ([3]; GM + SAHA (LD: 2–5 mg/kg), n=6): 0.4 ± 0.06
- platelet concentration compared to GM alone ([3]; SAHA 25 mg/kg IP daily with 120 mg GM base/kg SQ for 2 weeks): significantly lower
- tolerability (fur appearance, body weight) ([3]; SAHA 5–25 mg/kg with 120 mg GM base/kg SQ daily for 2 weeks): tolerated
- BUN [3, 9]: 17.5 ± 0.7
- Cr [3, 9]: 0.5 ± 0.007
- effect on GM-induced auditory threshold shifts (pigmented guinea pigs; 12 kHz): did not attenuate
- effect on GM-induced auditory threshold shifts (pigmented guinea pigs; 32 kHz): did not attenuate
- effect on GM-induced loss of OHCs (pigmented guinea pigs; SAHA IP with GM 120 mg base/kg daily for 2 weeks): did not attenuate
- effect on trauma of exposure to excessive noise (mice [4]; ref Chen et al., 2016): attenuated
- effect on acute effects of the ototoxic combination of KM and furosemide (mice [4]; ref Layman et al., 2015): attenuated
- ototoxicity (mice [5]): no ototoxicity
- blood-brain barrier penetration ([6]; mouse model of Huntington’s disease, ref Hockly et al., 2003): crosses the blood-brain barrier
- blood-labyrinth barrier / inner ear penetration ([6]; mouse, IP injection, ref Layman et al., 2015): crosses the blood-labyrinth barrier

Structure (SMILES): O=C(/C=C/c1cccc(S(=O)(=O)Nc2ccccc2)c1)NO [belinostat]
- loss of OHCs ([1]; 5 μM): 100%
- concentration at which changes in orientation of stereociliary bundles of basal-turn OHCs begin [1]: 3000 nM
- TD50 (median toxic dose, concentration leading to 50% OHC loss) [1]: 3.5 µM
- concentration at which protection from GM-induced OHC loss begins ([2]; 72 h): 0.1 µM
- concentration that completely prevents GM-induced OHC loss ([2]; 72 h): 0.4 µM
- ED50 (median effective protective dose) [2]: 50 nM

Structure (SMILES): CNC(C)C1CCC(N)C(OC2C(N)CC(N)C(OC3OCC(C)(O)C(NC)C3O)C2O)O1 (centres unmarked) [GM, gentamicin]
- overall loss of OHCs ([2]; GM 4.5 μM with vehicle (DMSO) alone, 72 h, base-to-apex gradient): 40%
- BUN ([3]; GM + DMSO, n=4): 16 ± 4.5
- Cr ([3]; GM + DMSO, n=4): 0.5 ± 0.22
- OHC loss in the basal turn (pigmented guinea pigs; GM 120 mg base/kg SQ daily for 2 weeks): significant OHC loss

Structure (SMILES): CCCC(=O)O [butyrate, sodium butyrate]
- effect on hair cells under GM-induced damage [7]: rescued hair cells
- protection of guinea pigs in vivo (guinea pigs): protected

Structure (SMILES): NC[C@H]1O[C@H](O[C@H]2[C@H](O)[C@@H](O[C@H]3O[C@H](CO)[C@@H](O)[C@H](N)[C@H]3O)[C@H](N)C[C@@H]2N)[C@H](O)[C@@H](O)[C@@H]1O [KM, kanamycin]
- auditory threshold shift (ABR), average (CBA/J mice; 16 kHz): 55 dB
- auditory threshold shift (ABR), average (CBA/J mice; 32 kHz): 55 dB

Structure (SMILES): CC(/C=C/C(=O)NO)=C\[C@@H](C)C(=O)c1ccc(N(C)C)cc1 [trichostatin A]
- effect on hair cells under GM-induced damage [7]: rescued hair cells

Source: article PMC5660723, “Histone Deacetylase Inhibitors Are Protective in Acute but Not in Chronic Models of Ototoxicity” (Frontiers in Cellular Neuroscience, 2017)
